Results as given in PubChem BioAssay (NCI).
Several values for one entry are separate records, joined by “and”; a condition that tells them apart may be missing. Equal entries are not always repeated.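 A five-concentration, 48-hour dose response in 96-well plates underlies each endpoint, interpolated linearly between surrounding concentrations. At the GI50, growth is halved. The concentration for full growth arrest is given as TGI.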

Columns and labels:
Assay in all cases: DTP human tumour cell line panel, 48 h
786-0 renal = test system: 786-0 renal
A549 NSCLC = test system: A549 NSCLC
CCRF-CEM leukemia = test system: CCRF-CEM leukemia
K-562 leukemia = test system: K-562 leukemia
OVCAR-8 ovarian = test system: OVCAR-8 ovarian
SK-MEL-28 melanoma = test system: SK-MEL-28 melanoma
SW-620 colon = test system: SW-620 colon
UO-31 renal = test system: UO-31 renal
MDA-MB-231 breast = test system: MDA-MB-231 breast
PC-3 prostate = test system: PC-3 prostate

Compound	TGI (786-0 renal)	TGI (A549 NSCLC)	TGI (CCRF-CEM leukemia)	TGI (K-562 leukemia) [µM]	TGI (OVCAR-8 ovarian)	TGI (SK-MEL-28 melanoma) [µM]	TGI (SW-620 colon)	TGI (UO-31 renal)	GI50 (786-0 renal)	GI50 (A549 NSCLC)	GI50 (CCRF-CEM leukemia)	GI50 (K-562 leukemia) [µM]	TGI (MDA-MB-231 breast)	GI50 (OVCAR-8 ovarian)	GI50 (PC-3 prostate)	TGI (PC-3 prostate)	GI50 (SW-620 colon)	GI50 (UO-31 renal)	GI50 (MDA-MB-231 breast) [µM]	GI50 (SK-MEL-28 melanoma) [µM]
COc1cc2cc(OC)c3cc4c(cc3c2c(OC)c1OC)OCO4	> 90.4 µM	> 95.8 µM	37.9 µM	48	> 100 µM	> 57.6	43.8 µM	> 67.8 µM												
Cc1c(C(=O)CC(=O)C(=O)Nc2ccccc2C(F)(F)F)[n+](=O)c2ccccc2n1[O-]	> 100 µM	75.6 µM	50 µM	93.2	61.3 µM	92.1	47 µM	> 100 µM												
CNS(=O)(=O)NNS(=O)(=O)c1ccccc1	> 100 µM	> 100 µM	> 100 µM	> 100	> 100 µM	> 100	> 100 µM	> 100 µM												
NC1=NCCC1(c1ccccc1)c1ccccn1 (stereo unspecified)	> 100 µM	> 100 µM	> 100 µM	> 100	> 100 µM	> 100	> 100 µM													
C[C@@H](Oc1cc(-n2cnc3ccc(CN4CCN(C)CC4)cc32)sc1C(N)=O)c1ccccc1C(F)(F)F	2.04 µM and > 7.11 µM	10.8 µM and > 10 µM	4.24 µM and > 2.07 µM		13.6 µM and > 10 µM		12.9 µM and > 10 µM	16.6 µM and > 10 µM	0.0439 µM and 0.0854 µM	0.0211 µM and 0.0306 µM	< 0.01 µM and 0.0149 µM	0.00317	2.65 µM and > 2.79 µM	< 0.0153 µM and 0.0146 µM	< 0.0192 µM and 0.0293 µM	15.5 µM and > 10 µM	< 0.01 µM and 0.00462 µM	1.67 µM and 0.776 µM		
O=C(CCc1nc(=S)[nH][nH]1)Nc1cc(Cl)c(Cl)cc1Cl	> 100 µM	> 100 µM	> 100 µM	> 100	> 100 µM	> 100	> 100 µM	> 100 µM												
NC(=O)NO.O.O.O.O.O.O.O.O.O.O.O.[Ge].[Ge].[Ge].[Ge].[Ge].[O]=[Ge].[O]=[Ge].[O]=[Ge].[O]=[Ge].[O]=[Ge][OH]	> 100 µM	> 100 µM	> 81.6 µM	> 100	> 100 µM	> 100	> 100 µM	> 100 µM												
CCCCCCCCCCCC(=O)OCCOCCOCCOCCOCCOCc1ccccc1	> 100 µM	> 100 µM	> 100 µM	> 100	> 100 µM	> 100	> 100 µM	> 100 µM												
CCOC(=O)C(C)(C)Oc1ccc2c(-c3ccccc3)cc(=O)oc2c1	> 100 µM	> 100 µM	63.5 µM	> 100	> 100 µM	> 100	> 100 µM	76 µM												
CCN(CC)N=Nc1c(C(N)=O)n[nH]c1C	> 100 µM	> 100 µM	54.5 µM		> 100 µM	> 100	> 100 µM	> 100 µM					> 100 µM			> 100 µM				
FC(F)(F)c1cccc(Nc2nc(-c3ccccc3)nc3ncccc23)c1	6.51 µM			17.9	18.2 µM	74.4	24.7 µM	21.8 µM	2.51 µM			3.17	41.2 µM	3.74 µM	3.34 µM	13.2 µM	5.2 µM	4.86 µM	4.88	7.93
CN(C)N=Nc1ccc(C(N)=O)cc1	> 100 µM	> 100 µM	> 100 µM	> 100	> 100 µM	> 100	> 100 µM	> 100 µM												
COC(=O)/C=C1\S/C(=N\NC(=O)c2cc3ccc2/C=C\c2ccc(cc2)/C=C\3)N(c2ccccc2)C1=O	4.38 µM	8.37 µM		> 100	> 100 µM	9.87	3.66 µM	3.08 µM	2 µM	2.83 µM		3.15	7.46 µM	3.08 µM	1.71 µM	3.63 µM	1.85 µM	1.53 µM	2.63	2.97
OCc1cc2ccccc2c2c3c(ccc12)OCO3	203 µM	126 µM			199 µM	350	118 µM	108 µM	42.3 µM	30.3 µM		40	175 µM	29.2 µM	25.4 µM	140 µM	29 µM	26.3 µM	29.1	35.3
Clc1ccccc1C(SCc1ccccc1)SCc1ccccc1	> 100 µM	> 100 µM	> 100 µM	> 100	> 100 µM	> 100	> 100 µM	> 100 µM								> 100 µM				
O=C(O)CCNCCCNCCC(=O)O	> 100 µM	> 100 µM	> 100 µM	> 100	> 100 µM	> 100	> 100 µM													
Cc1ccsc1C(=S)Nc1ccc(Cl)c(/C=N/OC(C)(C)C)c1	57.2 µM	> 100 µM	> 100 µM		> 100 µM	> 100	> 100 µM	> 100 µM					69.9 µM			> 100 µM				
Cc1ccc(NC(=O)Nc2ccc(-c3cccnc3)cc2N2CCC(CO)CC2)cc1	7.25 µM	> 100 µM	> 100 µM	> 100	> 100 µM	5.42	> 100 µM		2.58 µM	3.18 µM	3.57 µM	2.19	> 100 µM	6.43 µM	5.6 µM	> 100 µM	2.52 µM		2.42	1.49
COc1cc2ccnc([C@@H](OC(=O)c3ccccc3)c3ccc(OC)c(OC)c3OC)c2cc1OC	> 100 µM	> 100 µM	> 100 µM	> 100	> 100 µM	> 100	> 100 µM	76.3 µM												
CCN(CC)CCSc1c2ccccc2nc2cc(NCC(=O)Nc3ccccc3-c3ccccc3NC(=O)CNc3ccc4c(SCCN(CC)CC)c5ccccc5nc4c3)ccc12	> 100 µM	> 100 µM	96.9 µM	> 73.5	> 100 µM	> 100	> 100 µM	> 100 µM												
